Biological target: T1, KRAS G12C 1-169, his-tagged protein, GDP-loaded (Homo sapiens, UniProt P01116, G12C)
T1 construct: KRAS G12C 1-169, his-tagged protein, GDP-loaded; His tag
Assay: Biochemical assay: covalent modification of KRAS G12C, analysed by mass spectrometry (RapidFire/TOF or Q-Exactive); also: time not given here
Type: binding
Details: Modification activity, modification percentage from MS peak intensities
Summary of the method: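 Covalent adduct formation was quantified by intact-protein mass spectrometry, either TOF or C4 LC-Q Exactive Plus, as percent modified versus unmodified protein after deconvolution. Compounds at 8 or 32 μM final were incubated with 0.5 or 2 μM GDP-bound KRAS G12C(1-169)-His in Hepes/NaCl/MgCl2 buffer before acid quench.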

Row | Compound | Binding %
1 | C=CC(=O)N1CC2(CCN(c3nc(OCc4ncccn4)nc(-c4c(C)ccc5[nH]ncc45)c3C#N)C2)C1 [Compound I-154, 4-(2-acryloyl-2,6-diazaspiro[3.4]octan-6-yl)-6-(5-methyl-1H-indazol-4-yl)-2-(pyrimidin-2-ylmethoxy)pyrimidine-5-carbonitrile] | ++ (++ indicates binding activity from 50 to 85%)
2 | C=CC(=O)N1CC2(CCN(c3nc(OCc4ccc(C(F)(F)F)cn4)nc(-c4c(C)ccc5cnn(C)c45)c3C#N)C2)C1 [Compound I-155, 4-(2-acryloyl-2,6-diazaspiro[3.4]octan-6-yl)-6-(1,6-dimethyl-1H-indazol-7-yl)-2-((5-(trifluoromethyl)pyri-din-2-yl)methoxy)pyrimidine-5-carbonitrile] | ++ (++ indicates binding activity from 50 to 85%)
3 | C=CC(=O)N1CC2(CCN(c3nc(OCc4cccc(C(F)(F)F)n4)nc(-c4c(C)ccc5cnn(C)c45)c3C#N)C2)C1 [Compound I-156, 4-(2-acryloyl-2,6-diazaspiro[3.4]octan-6-yl)-6-(1,6-dimethyl-1H-indazol-7-yl)-2-((6-(trifluoromethyl)pyri-din-2-yl)methoxy)pyrimidine-5-carbonitrile] | ++ (++ indicates binding activity from 50 to 85%)
4 | C=CC(=O)N1CC2(CCN(c3nc(OCc4ccc(C(F)(F)F)cc4)nc(-c4c(C)ccc5cnn(C)c45)c3C#N)C2)C1 [Compound I-157, 4-(2-acryloyl-2,6-diazaspiro[3.4]octan-6-yl)-6-(1,6-dimethyl-1H-indazol-7-yl)-2-((4-(trifluoromethyl)ben-zyl)oxy)pyrimidine-5-carbonitrile] | ++ (++ indicates binding activity from 50 to 85%)
5 | C=CC(=O)N1CC2(CCN(c3nc(OCc4cccc(C(F)(F)F)c4)nc(-c4c(C)ccc5cnn(C)c45)c3C#N)C2)C1 [Compound I-158, 4-(2-acryloyl-2,6-diazaspiro[3.4]octan-6-yl)-6-(1,6-dimethyl-1H-indazol-7-yl)-2-((3-(trifluoromethyl)ben-zyl)oxy)pyrimidine-5-carbonitrile] | ++ (++ indicates binding activity from 50 to 85%)
6 | C=CC(=O)N1CC2(CCN(c3nc(OCc4cccc(OC)c4)nc(-c4c(C)ccc5cnn(C)c45)c3C#N)C2)C1 [Compound I-159, 4-(2-acryloyl-2,6-diazaspiro[3.4]octan-6-yl)-6-(1,6-dimethyl-1H-indazol-7-yl)-2-((3-methoxybenzyl)oxy) pyrimidine-5-carbonitrile] | ++ (++ indicates binding activity from 50 to 85%)
7 | C=CC(=O)N1CC2(CCN(c3nc(N4CCC(N5CCN(C)CC5)CC4)nc(-c4c(C)ccc5cnn(C)c45)c3C#N)C2)C1 [Compound I-160, 4-(2-acryloyl-2,6-diazaspiro[3.4]octan-6-yl)-6-(1,6-dimethyl-1H-indazol-7-yl)-2-(4-(4-methylpiperazin-1-yl)piperidin-1-yl)pyrimidine-5-carbonitrile] | ++ (++ indicates binding activity from 50 to 85%)
8 | C=CC(=O)N1CC2(CCN(c3nc(OCc4cnc(OC)nc4)nc(-c4c(C)ccc5cnn(C)c45)c3C#N)C2)C1 [Compound I-161, 4-(2-acryloyl-2,6-diazaspiro[3.4]octan-6-yl)-6-(1,6-dimethyl-1H-indazol-7-yl)-2-((2-methoxypyrimidin-5-yl)methoxy)pyrimidine-5-carbonitrile] | ++ (++ indicates binding activity from 50 to 85%)
9 | C=CC(=O)N1CC2(CCN(c3nc(OCc4ccc(N5CCOCC5)cn4)nc(-c4c(C)ccc5cnn(C)c45)c3C#N)C2)C1 [Compound I-162, 4-(2-acryloyl-2,6-diazaspiro[3.4]octan-6-yl)-6-(1,6-dimethyl-1H-indazol-7-yl)-2-((5-morpholinopyridin-2-yl)methoxy)pyrimidine-5-carbonitrile] | ++ (++ indicates binding activity from 50 to 85%)
10 | C=CC(=O)N1CC2(CCN(c3nc(OCc4ccccc4)nc(-c4c(C)ccc5cnn(C)c45)c3C#N)C2)C1 [Compound I-163, 4-(2-acryloyl-2,6-diazaspiro[3.4]octan-6-yl)-2-(benzyloxy)-6-(1,6-dimethyl-1H-indazol-7-yl)pyrimidine-5-carbonitrile] | ++ (++ indicates binding activity from 50 to 85%)
11 | C=CC(=O)N1CC2(CCN(c3nc(OCc4ccnnc4)nc(-c4c(C)ccc5cnn(C)c45)c3C#N)C2)C1 [Compound I-164, 4-(2-acryloyl-2,6-diazaspiro[3.4]octan-6-yl)-6-(1,6-dimethyl-1H-indazol-7-yl)-2-(pyridazin-4-ylmethoxy)pyrimidine-5-carbonitrile] | ++ (++ indicates binding activity from 50 to 85%)
12 | C=CC(=O)N1CC2(CCN(c3nc(OCc4cc(F)cc(F)c4)nc(-c4c(C)ccc5cnn(C)c45)c3C#N)C2)C1 [Compound I-165] | ++ (++ indicates binding activity from 50 to 85%)
13 | C=CC(=O)N1CC2(CCN(c3nc(OCc4cc(C(F)(F)F)ccn4)nc(-c4c(C)ccc5cnn(C)c45)c3C#N)C2)C1 [Compound I-166, 4-(2-acryloyl-2,6-diazaspiro[3.4]octan-6-yl)-6-(1,6-dimethyl-1H-indazol-7-yl)-2-((4-(trifluoromethyl)pyri-din-2-yl)methoxy)pyrimidine-5-carbonitrile] | ++ (++ indicates binding activity from 50 to 85%)
14 | C=CC(=O)N1CC2(CCN(c3nc(OC[C@@H]4CCCN4C)nc(-c4ccnc(N)n4)c3C#N)C2)C1 [Compound I-167, (S)-6-(2-acryloyl-2,6-diazaspiro[3.4]octan-6-yl)-2′-amino-2-((1-methylpyrrolidin-2-yl)methoxy)-[4,4′-bipyrimidine]-5-carbonitrile] | + (+ indicates binding activity greater than 0% and up to 50%)
15 | C=CC(=O)N1CC2(CCN(c3nc(OCc4ncccn4)nc(-c4c(C)ccc5cnn(C)c45)c3C#N)C2)C1 [Compound I-168, 4-(2-acryloyl-2,6-diazaspiro[3.4]octan-6-yl)-6-(1,6-dimethyl-1H-indazol-7-yl)-2-(pyrimidin-2-ylmethoxy)pyrimidine-5-carbonitrile] | + (+ indicates binding activity greater than 0% and up to 50%)
16 | C=CC(=O)N1CC2(CCN(c3nc(OCc4cnc(C)nc4)nc(-c4c(C)ccc5cnn(C)c45)c3C#N)C2)C1 [Compound I-169, 4-(2-acryloyl-2,6-diazaspiro[3.4]octan-6-yl)-6-(1,6-dimethyl-1H-indazol-7-yl)-2-((2-methylpyrimidin-5-yl)methoxy)pyrimidine-5-carbonitirle] | ++ (++ indicates binding activity from 50 to 85%)
17 | C=CC(=O)N1CC2(CCN(c3nc(OCc4cccc(C)n4)nc(-c4c(C)ccc5cnn(C)c45)c3C#N)C2)C1 [Compound I-170, 4-(2-acryloyl-2,6-diazaspiro[3.4]octan-6-yl)-6-(1,6-dimethyl-1H-indazol-7-yl)-2-((6-methylpyridin-2-yl)methoxy)pyrimidine-5-carbonitrile] | ++ (++ indicates binding activity from 50 to 85%)
18 | C=CC(=O)N1CC2(CCN(c3nc(OCc4cnc(C)nc4)nc(-c4c(C)ccc5[nH]ncc45)c3C#N)C2)C1 [Compound I-171, 4-(2-acryloyl-2,6-diazaspiro[3.4]octan-6-yl)-6-(5-methyl-1H-indazol-4-yl)-2-((2-methylpyrimidin-5-yl)methoxy)pyrimidine-5-carbonitrile] | +++ (+++ indicates binding activity greater than 85%)
19 | C=CC(=O)N1CC2(CCN(c3nc(OCc4cccc(C)n4)nc(-c4c(C)ccc5[nH]ncc45)c3C#N)C2)C1 [Compound I-172, 4-(2-acryloyl-2,6-diazaspiro[3.4]octan-6-yl)-6-(5-methyl-1H-indazol-4-yl)-2-((6-methylpyridin-2-yl)methoxy)pyrimidine-5-carbonitrile] | +++ (+++ indicates binding activity greater than 85%)
20 | C=CC(=O)N1CC2(CCN(c3nc(OCc4ccnnc4)nc(-c4c(C)ccc5[nH]ncc45)c3C#N)C2)C1 [Compound I-173, 4-(2-acryloyl-2,6-diazaspiro[3.4]octan-6-yl)-6-(5-methyl-1H-indazol-4-yl)-2-(pyridazin-4-ylmethoxy)pyrimidine-5-carbonitrile] | ++ (++ indicates binding activity from 50 to 85%)
21 | C=CC(=O)N1CC2(CCN(c3nc(OCc4cc(C(F)(F)F)ccn4)nc(-c4c(C)ccc5[nH]ncc45)c3C#N)C2)C1 [Compound I-174, 4-(2-acryloyl-2,6-diazaspiro[3.4]octan-6-yl)-6-(5-methyl-1H-indazol-4-yl)-2-((4-(trifluoromethyl)pyri-din-2-yl)methoxy)pyrimidine-5-carbonitrile] | ++ (++ indicates binding activity from 50 to 85%)
22 | C=CC(=O)N1CC2(CCN(c3c(OCc4ccccn4)ncc(-c4c(C)ccc5cnn(C)c45)c3C#N)C2)C1 [Compound I-175, 3-(2-acryloyl-2,6-diazaspiro[3.4]octan-6-yl)-5-(1,6-dimethyl-1H-indazol-7-yl)-2-(pyridin-2-ylmethoxy)isonicoti-nonitrile] | ++ (++ indicates binding activity from 50 to 85%)
23 | C=CC(=O)N1CC2(CC(=O)N(c3nc(N4CCOCC4)nc(-c4c(C)ccc5cn[nH]c45)c3C#N)C2)C1 [Compound I-176, 4-(2-acryloyl-7-oxo-2,6-diazaspiro[3.4]octan-6-yl)-6-(6-methyl-1H-indazol-7-yl)-2-morpholinopyrimidine-5-carbonitrile] | + (+ indicates binding activity greater than 0% and up to 50%)
24 | C=CC(=O)N1CC2(CC(=O)N(c3nc(N4CCOCC4)nc(-c4c(O)cccc4F)c3C#N)C2)C1 [Compound I-177, 4-(2-acryloyl-7-oxo-2,6-diazaspiro[3.4]octan-6-yl)-6-(2-fluoro-6-hydroxyphenyl)-2-morpholinopyrimidine-5-carbonitrile] | + (+ indicates binding activity greater than 0% and up to 50%)
